Laboratory results from US7915293B2, “Ubiquitin ligase inhibitors” (Rigel Pharmaceuticals, Inc., priority 2003, dated 2011).

Tests used:
Parameters in all cases: key: “+” indicates that the compound exibits inhibitory activity; “−” indicates that low or no inhibitory activity was observed
[1] = target: E3 (His-APC11/APC2-"APC") (Homo sapiens, UniProt Q9NYG5+Q9UJX6); assay: Plate-based E3 ligase assay (APC FLAG), auto-ubiquitination; format: biochemical; settings: 8 concentrations tested
How it was run: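 His-APC11/APC2 auto-ubiquitination was run in casein-blocked nickel plates for 1 h at room temperature, with E1 at 5 ng/well, UbcH5c at 20 ng/well and APC at 100 ng/well. Buffer was 62.5 mM Tris pH 7.6, 3 mM MgCl2, 1 mM DTT, 2.5 mM ATP and Flag-ubiquitin at 100 ng/well. Detection used anti-Flag/HRP chemiluminescence, and IC50 was typically from 6 or 8 concentrations versus a DMSO control.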

A549 cells [2] = assay: Cell proliferation assay, photographic image analysis of proliferation, apoptosis and death (PAD assay), A549; format: cell-based; settings: 6 concentrations tested
How it was run: (§1)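 Cells grown in RPMI with 5% FBS (2,000/well) and dosed 24 h after plating with 6.3-fold dilutions in duplicate (master plate 500× final, top 10 mM stock). After 48 h at 37 °C, cells formamide-fixed and DAPI-stained. Image analysis counted live, apoptotic and dead cells.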

A549 cells [3] = assay: Non-photographic proliferation analysis (Promega Cell titer Aqueous), A549; format: cell-based; settings: 6 concentrations tested
Experimental: (§2) A549 (ATCC# CCL-185), HeLa (ATCC# CCL-2), HCT116 (ATCC# CCL-247), and H1299 (ATCC# CRL-5803) cells were maintained in T175 flasks following the ATCC recommended media and handling procedures. Flasks reaching approximately 70% confluency were trypsinized and resuspended in RPMI media (Cell-Gro catalog number 10-040-CM) modified to contain 5% FBS, 100 ug/mlPen/Strep (Cell-Gro catalog number 30-002-CL), and 0.3 mg/ml L-Glutamine (Cell-Gro catalog number 25-003-CL). A 20,000 cells/ml solution was made for plating. Cells were plated in black Packard 96 well plates by placing 100 μl per well (2,000 cells per well).
(§3) Compounds and additional media were added 24 hours after cell plating. A compound master plate was created with concentrations 500 times greater than the final concentration added to the cells. All compound testing was done in duplicate using 6.3 fold dilutions starting with 10 mM. All outside wells (and 4 internal wells) were DMSO controls. Taxol and at least one additional control were run on all plates. Three microliters of the compound master plate were added to deep well blocks containing 750 μl of RPMI media. One hundred microliters were transferred from the compound/media deep well blocks to the plated cells resulting in a 500 fold dilution of the compounds. Cells were grown at 37° C., 5% CO2 for 48 hours.
(§4) Some cell plates were treated with Promega Cell titer Aqueous 1 kit (promega—VWR catalog number G3580). In this case, 48 hours after the test compound were added, 100 μl of media were removed and 20 μl of cell titer reagent were added to all wells. Plates were incubated at 37° C. for 45 minutes prior to absorbance reads on the Wallac plate reader at 490 nm for 0.1 sec/well.

HeLa cells [4] = assay: Non-photographic proliferation analysis (Promega Cell titer Aqueous), HeLa; format: cell-based; settings: 6 concentrations tested
Experimental: as §2, §3, §4

HCT116 cells [5] = assay: Non-photographic proliferation analysis (Promega Cell titer Aqueous), HCT116; format: cell-based; settings: 6 concentrations tested
Experimental: as §2, §3, §4

HeLa cells [6] = assay: Cell proliferation assay, photographic image analysis of proliferation, apoptosis and death (PAD assay), HeLa; format: cell-based; settings: 6 concentrations tested
How it was run: as §1

HCT116 cells [7] = assay: Cell proliferation assay, photographic image analysis of proliferation, apoptosis and death (PAD assay), HCT116; format: cell-based; settings: 6 concentrations tested
Experimental: as §2, §3
Cells to be analyzed by photography were fixed and stained. One hundred microliters of media were removed and 100 μl of 9.3% […] was added to each well. Plates were left on the benchtop for 45 minutes. A staining solution containing 1.55 μl of 1 mg/ml DAPI added to 18.75 ml PBS was warmed for 15 minutes at 37° C. The cells were aspirated prior to washing with 100 μl of PBS. Seventy microliters of PBS were aspirated and 170 μl of the DAPI solution were added to each well of fixed cells. Plates were left at room temperature for one hour then aspirated and washed twice with 100 μl of PBS. The stained cells were left at 4° C. for a minimum of 16 hours before photographic analysis with Array Scan II (Cellomics). Analysis of the photographic images to determine numbers of live cells (proliferation), apoptotic cells and dead cells, were according to the methods described in U.S. Provisional Patent Application Ser. No. 60/406,714, which incorporated herein in its entirety.

Chain of E3 (His-APC11/APC2-"APC") (Q9NYG5 whole entry): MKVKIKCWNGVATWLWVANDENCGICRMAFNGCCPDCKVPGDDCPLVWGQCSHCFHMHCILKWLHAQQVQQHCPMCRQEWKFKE
Chain of E3 (His-APC11/APC2-"APC") (Q9UJX6 whole entry): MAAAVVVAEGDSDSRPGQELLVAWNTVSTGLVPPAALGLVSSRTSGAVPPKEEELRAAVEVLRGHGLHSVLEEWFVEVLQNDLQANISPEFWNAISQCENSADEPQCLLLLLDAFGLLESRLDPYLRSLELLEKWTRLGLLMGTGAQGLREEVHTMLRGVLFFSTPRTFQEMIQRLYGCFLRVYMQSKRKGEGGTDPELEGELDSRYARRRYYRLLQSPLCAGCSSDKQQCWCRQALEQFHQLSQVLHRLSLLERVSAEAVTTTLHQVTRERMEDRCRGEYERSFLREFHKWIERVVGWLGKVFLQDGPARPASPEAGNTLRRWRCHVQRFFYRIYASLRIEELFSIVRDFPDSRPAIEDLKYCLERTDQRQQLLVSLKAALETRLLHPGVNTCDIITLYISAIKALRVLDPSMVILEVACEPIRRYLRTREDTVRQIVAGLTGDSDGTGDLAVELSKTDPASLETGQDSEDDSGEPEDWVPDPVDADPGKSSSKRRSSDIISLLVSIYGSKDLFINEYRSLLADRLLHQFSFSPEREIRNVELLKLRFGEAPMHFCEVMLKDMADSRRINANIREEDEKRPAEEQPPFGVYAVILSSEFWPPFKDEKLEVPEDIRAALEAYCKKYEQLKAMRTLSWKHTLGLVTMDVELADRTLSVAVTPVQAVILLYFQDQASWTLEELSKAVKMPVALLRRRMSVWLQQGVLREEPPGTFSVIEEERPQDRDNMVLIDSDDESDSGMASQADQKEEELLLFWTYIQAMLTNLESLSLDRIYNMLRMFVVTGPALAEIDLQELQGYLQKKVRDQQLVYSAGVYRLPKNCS

APC Flag 8 pt [1] | Structure (SMILES) | PAD Assay, A549 6 pt (A549 cells [2]) | Cell Titer-Aqueous, A549 6 pt (A549 cells [3]) | Cell Titer-Aqueous, HELA 6 pt (HeLa cells [4]) | Cell Titer-Aqueous, HCT116 6 pt (HCT116 cells [5]) | PAD Assay, HELA 6 pt (HeLa cells [6]) | PAD Assay, HCT116 6 pt (HCT116 cells [7])
+ | O=[N+]([O-])c1ccc(Oc2c(Cl)cc(S(=O)(=O)Nc3ccc(F)c(Cl)c3)cc2Cl)c(Cl)c1 [Example 16, 3,5-dichloro-N-(3-chloro-4-fluorophenyl)-4-(2-chloro-4-nitrophenoxy)benzene-sulfonamide] | − | + | + | + |  | 
− | N=C(NS(=O)(=O)c1cc(Cl)c(Oc2ccc([N+](=O)[O-])cc2)c(Cl)c1)c1ccncc1 [Example 62, N-{[3,5-dichloro-4-(4-nitrophenoxy)phenyl]sulfonyl}pyridine-4-carboximidamide] | + | + | + | + | + | 
+ | CC1CCCC(C)N1S(=O)(=O)c1cc(Cl)c(Oc2ccc([N+](=O)[O-])cc2Cl)c(Cl)c1 (stereo not shown) [Example 140, 1-{[3,5-dichloro-4-(2-chloro-4-nitrophenoxy)phenyl]sulfonyl}-2,6-dimethylpiperidine] |  | − | − | − |  | 
+ | Cc1cccc(C)c1NS(=O)(=O)c1cc(Cl)c(Oc2ccc([N+](=O)[O-])cc2Cl)c(Cl)c1 [Example 146, 3,5-dichloro-4-(2-chloro-4-nitrophenoxy)-N-(2,6-dimethylphenyl)benzenesulfonamide] | + | + | + | + | + | 
+ | N#Cc1ccc(NS(=O)(=O)c2cc(Cl)c(Oc3ccc([N+](=O)[O-])cc3Cl)c(Cl)c2)cc1 [Example 200, 3,5-dichloro-4-(2-chloro-4-nitrophenoxy)-N-(4-cyanophenyl)benzenesulfonamide] | + | + | + |  | + | 
+ | COc1ccc(NS(=O)(=O)c2cc(Cl)c(Oc3ccc([N+](=O)[O-])cc3Cl)c(Cl)c2)cc1Cl [Example 201, 3,5-dichloro-N-(3-chloro-4-methoxyphenyl)-4-(2-chloro-4-nitrophenoxy)benzene-sulfonamide] | + | + | + |  | + | 
− | COc1cc(NS(=O)(=O)c2cc(Cl)c(Oc3ccc([N+](=O)[O-])cc3Cl)c(Cl)c2)c(OC)cc1Cl [Example 202, 3,5-dichloro-N-(4-chloro-2,5-dimethoxy-phenyl)-4-(2-chloro-4-nitrophenoxy)benzene-sulfonamide] | + | + | + |  | + | 
+ | O=C1Nc2cc(NS(=O)(=O)c3cc(Cl)c(Oc4ccc([N+](=O)[O-])cc4Cl)c(Cl)c3)ccc2OC1(F)F [Example 214, 3,5-dichloro-4-(2-chloro-4-nitrophenoxy)-N-(2,2-difluoro-3-oxo-3,4-dihydro-2H-1,4-benzoxazin-6-yl)benzenesulfonamide] | + | − | + |  | + | 
+ | O=[N+]([O-])c1ccc(Oc2c(Cl)cc(S(=O)(=O)Nc3cccc4cccnc34)cc2Cl)c(Cl)c1 [Example 219, 3,5-dichloro-4-(2-chloro-4-nitrophenoxy)-N-quinolin-8-ylbenzenesulfonamide] | + | + | + |  | + | +
+ | O=[N+]([O-])c1ccc(Oc2c(Cl)cc(S(=O)(=O)Nc3ccc(F)cc3I)cc2Cl)c(Cl)c1 [Example 226, 3,5-dichloro-4-(2-chloro-4-nitrophenoxy)-N-(4-fluoro-2-iodophenyl)benzenesulfonamide] | + |  |  |  | + | +
+ | O=[N+]([O-])c1ccc(Oc2c(Cl)cc(S(=O)(=O)Nc3ccccc3C(F)(F)F)cc2Cl)c(Cl)c1 [Example 230, 3,5-dichloro-4-(2-chloro-4-nitrophenoxy)-N-[2-(trifluoromethyl)phenyl]benzene-sulfonamide] | + |  |  |  | + | +
+ | Cc1ccc(NS(=O)(=O)c2cc(Cl)c(Oc3ccc([N+](=O)[O-])cc3Cl)c(Cl)c2)c(Cl)c1 [Example 251, 3,5-dichloro-N-(2-chloro-4-methylphenyl)-4-(2-chloro-4-nitrophenoxy)benzene-sulfonamide] | + |  |  |  | + | +
+ | O=S(=O)(Nc1ccc(C(F)(F)F)cc1Cl)c1ccc(Oc2ncc(C(F)(F)F)cc2Cl)cc1 [Example 255, N-[2-chloro-4-(trifluoromethyl)phenyl]-4-{[3-chloro-5-(trifluoromethyl)pyridin-2-yl]oxy}benzenesulfonamide] | + |  |  |  | + | +
+ | O=[N+]([O-])c1ccc(Oc2c(Cl)cc(S(=O)(=O)Nc3ccccc3-n3cccc3)cc2Cl)c(Cl)c1 [Example 285, 3,5-dichloro-4-(2-chloro-4-nitrophenoxy)-N-[2-(1H-pyRRol-1-yl)phenyl]benzene-sulfonamide] | + |  |  |  | + | +

Structure (SMILES) | APC Flag 8 pt [1] | PAD Assay, A549 6 pt (A549 cells [2]) | Cell Titer-Aqueous, A549 6 pt (A549 cells [3]) | Cell Titer-Aqueous, HELA 6 pt (HeLa cells [4]) | Cell Titer-Aqueous, HCT116 6 pt (HCT116 cells [5]) | PAD Assay, HELA 6 pt (HeLa cells [6]) | PAD Assay, HCT116 6 pt (HCT116 cells [7])
Cc1cccc(C)c1N(S(=O)(=O)c1cc(Cl)c(Oc2ccc([N+](=O)[O-])cc2Cl)c(Cl)c1)S(=O)(=O)c1cc(Cl)c(Oc2ccc([N+](=O)[O-])cc2Cl)c(Cl)c1 [Example 145, 3,5-dichloro-4-(2-chloro-4-nitrophenoxy)-N-(2,6-dimethylphenyl)-N-(1,3-dichloro-2-(2-chloro-4-nitrophenoxy)5-sulfonylbenzene)benzenesulfonamide] | + |  | − | − | − |  | 
N=C(NS(=O)(=O)c1cc(Cl)c(Oc2ccc([N+](=O)[O-])cc2Cl)c(Cl)c1)c1cccc([N+](=O)[O-])c1 [Example 210, N-{[3,5-dichloro-4-(2-chloro-4-nitro-phenoxy)phenyl]sulfonyl}-3-nitrobenzene-carboximidamide] | + | + | + | + |  | + | 
